Data reported in US20070258961A1, “Cholesterol efflux and uses thereof” (priority 2002, published 2007).

Tests used:
CYP27 [1] = conditions: promoter studies; cited from earlier work
CYP27 [2] = assay: CYP27 expression in transfected macrophages with demethylation agent; type: cell-based, mouse; conditions: 0.5 μM, CMV promoter silenced by methylation
Procedure: Red, in D, is the mitochondrial marker dye, green in C, is CYP27.
Macrophages were cultured and transfected the same as for the CHOP cells in Example 1 except that after transfection, 0.5 μM 5-azacytidine was included in all further incubations. […] Panels A and B in FIG. 11 are actually transfected cells, but not treated with 5-azacytidine.

| SMILES | regulation of CYP27 expression (CYP27 [1]) | effect on CYP27 expression in transfected macrophages (CYP27 [2]) |
| --- | --- | --- |
| C[C@H](CCC(=O)O)[C@H]1CC[C@H]2[C@@H]3[C@H](O)C[C@@H]4C[C@H](O)CC[C@]4(C)[C@H]3C[C@H](O)[C@]12C [cholic acid] | downregulated |  |
| Nc1ncn([C@@H]2O[C@H](CO)[C@@H](O)[C@H]2O)c(=O)n1 [5-azacytidine] |  | expressed CYP27 |
